Measured values published in patent US20110021575A1, “PENETRATION ENHANCERS FOR INSECTICIDAL AGENTS” (priority 2006, published 2011).

Assay: Penetration test: penetration of active substance through enzymatically isolated apple leaf cuticles in diffusion cells
Type: in vitro ADME, apple trees of the Golden Delicious variety
Settings: cuticular penetration of imidacloprid, at 20° C., 60%, imidacloprid 0.3 g/l (ai alone) or 0.2 g/l (with surfactant), mean values of 5-8 repetitions
Protocol: In this test, the penetration of active substances through enzymatically isolated cuticles of apple tree leaves was measured.
Leaves which were cut off in the stage of full development of apple trees of the Golden Delicious variety were used. The isolation of the cuticles was effected in a manner such that • first leaf discs marked on the underside with dye and punched out were filled by means of vacuum infiltration with a pectinase solution (0.2 to 2% strength) buffered to a pH between 3 and 4, • sodium azide was then added and • the leaf discs thus treated were allowed to stand until disintegration of the original leaf structure and detachment of the noncellular cuticle.
Thereafter, only those cuticles of the upper sides of the leaves which were free of staltoa and hairs were further used. They were washed several times alternately with water and a buffer solution at pH 7. The clean cuticles obtained were finally drawn onto small Teflon plates and smoothed and dried with a gentle air jet.
In the next step, the cuticle membranes thus obtained were placed in stainless steel diffusion cells (=transport chambers) for membrane transport investigations. For this purpose, the cuticles were placed by means of forceps centrally on the silicone grease-coated edges of the diffusion cells and closed with a likewise greased ring. The arrangement was chosen so that the morphological outside of the cuticles faced outwards, i.e. towards the air, while the original inside faced the interior of the diffusion cell. The diffusion cells were filled with water or with a mixture of water and solvent. […]
After the application of the spray liquors, in each case the water was allowed to evaporate, and in each case the chambers were then turned around and were placed in thermostated trays, air having a defined temperature and atmospheric humidity being blown onto the outside of the cuticle. […] The active substance penetration was measured with radioactively marked active substance.

Structure (SMILES): O=[N+]([O-])NC1=NCCN1Cc1ccc(Cl)nc1 [Imidacloprid (ai), imidacloprid]
- Penetration after 5 hours (after 5 hours): 0.1%
- Penetration after 1 day (after 1 day): 0.3%
- Penetration after 2 days (after 2 days): 0.5%
